Test results reported in patent US20150141383A1, “Darunavir Polymorph and Process for Preparation Thereof” (Cipla Limited, priority 2010, published 2015).

Test: Hygroscopicity study as per British Pharmacopoeia method
Format: physicochemical
Protocol: Darunavir Hydrate From C was subjected to hygroscopicity study and the test was performed as per the method given in British Pharmacopoeia.
A weight change of 0.0003 g was observed which correspond to 0.06% weight change. As per the test a sample is of non-hygroscopic nature if the weight change observed is less than 0.2%.

With CC(C)CN(C[C@@H](O)[C@H](Cc1ccccc1)NC(=O)O[C@H]1CO[C@H]2OCC[C@H]21)S(=O)(=O)c1ccc(N)cc1 [darunavir hydrate Form C, (3R,3aS,6aR)-hexahydrofuro[2,3-b]furan-3-yl(1S,2R)-3-[[(4-aminophenyl)sulfonyl](isobutyl)amino]-1-benzyl-2-hydroxypropylcarbamate] as the compound, how does the “hygroscopic nature (non-hygroscopic if weight change less than 0.2%)” value (25° C. and 85% RH, 24 hours) read?
Its value is “non-hygroscopic”.

And the weight change (57.6456 g exposed at 25° C. and 85% RH for 24 hours)?
The weight change was 0.0003 g.

What about the weight change (exposed at 25° C. and 85% RH for 24 hours) of the same compound?
Its weight change is 0.06%.
